According to ChEMBL document CHEMBL1150640, “Tasiamide, a cytotoxic peptide from the marine cyanobacterium Symploca sp” (J Nat Prod, 2002):
Values after ≈ are worked out from the molar mass of the structure shown.

Assays:
[1] = tested on: KB; assay: Cytotoxicity against human KB cells; format: functional, cell-based
[2] = tested on: LoVo; assay: Cytotoxicity against human LoVo cells; format: functional, cell-based

CC[C@H](C)[C@H](O)C(=O)N[C@@H](CC(C)C)C(=O)N(C)[C@@H](CCC(N)=O)C(=O)N[C@H](C(=O)NCC(=O)N(C)[C@H](Cc1ccccc1)C(=O)N1CCC[C@H]1C(=O)OC)[C@@H](C)CC [TASIAMIDE]
IC50 [1]: 0.48 µg/mL (≈ 0.578 µM) | IC50 [2]: 3.47 µg/mL (≈ 4.18 µM)
